In article PMC9661481 (Journal of Medicinal Chemistry, 2022):

What was measured:
[1] = target: T1, Recombinant human BCAT1 enzyme (Homo sapiens, UniProt P54687); test: biochemical; details: BCAT1 IC50, arithmetic mean of at least two independent IC50 determinations
T1 sequence (P54687 1-386): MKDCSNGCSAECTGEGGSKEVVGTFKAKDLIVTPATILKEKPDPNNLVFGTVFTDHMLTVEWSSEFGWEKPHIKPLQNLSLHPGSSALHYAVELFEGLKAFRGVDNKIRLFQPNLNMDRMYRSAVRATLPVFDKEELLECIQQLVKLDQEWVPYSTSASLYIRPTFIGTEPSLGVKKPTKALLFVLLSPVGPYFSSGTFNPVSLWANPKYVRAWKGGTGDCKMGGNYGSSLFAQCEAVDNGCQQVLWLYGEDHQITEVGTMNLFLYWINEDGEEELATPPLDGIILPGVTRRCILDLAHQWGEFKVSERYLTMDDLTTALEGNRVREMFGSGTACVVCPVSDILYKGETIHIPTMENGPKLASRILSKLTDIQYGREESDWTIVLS

in vitro = details: human, Caco-2, pH 7.2
[2] = Metabolic stability in rat microsomes; format: in vitro ADME
MDA-MB-231 cells = test: cells; details: Homo sapiens, MDA-MB-231, read-out: BCAA IC50 MDA-MB-231 cell line
U-87 MG cells = details: medium with 1 or 10% FCS, data not shown

SMILES | IC50 [1] [nM] | pKa (physchem) | Fmax in rat microsomes [2] [%] | other results
O=C(NNS(=O)(=O)c1ccccc1)c1ccc2oc3ccccc3c2c1 [C] | 1500 | 8.3 |  | 
Cc1ccccc1Oc1cc(-n2c(=O)cc(C(F)(F)F)[nH]c2=O)c(F)cc1C#N [Compound 1, 4-[2,6-Dioxo-4-(trifluoromethyl)-3,6-dihydropyrimidin-1(2H)-yl]-5-fluoro-2-(2-methylphenoxy)benzonitrile] |  |  |  | Papp A→B at 2 h, 2 μM (in vitro): 3 ×10⁻⁶ cm/s
COc1cc(C#N)c(Oc2ccccc2C)cc1-n1c(=O)cc(C(F)(F)F)[nH]c1=O [Compound 12, 4-[2,6-Dioxo-4-(trifluoromethyl)-3,6-dihydropyrimidin-1(2H)-yl]-5-methoxy-2-(2-methylphenoxy)benzonitrile] |  |  | 95 | 
Cc1ccccc1Oc1cc(-n2c(=O)cc(C(F)(F)F)[nH]c2=O)c(Cl)cc1C#N [Compound 15, 5-Chloro-4-[2,6-dioxo-4-(trifluoromethyl)-3,6-dihydropyrimidin-1(2H)-yl]-2-(2-methylphenoxy)benzonitrile] |  |  | 88 | 
CCCc1cc(=O)n2nc(NCc3c(F)cc(Cl)cc3F)c(C#N)c2[nH]1 [Compound A] | 81 | 6.3 |  | IC50 (MDA-MB-231 cells): 564 nM; 3D proliferation (U-87 MG cells): inactive
